Measured values from paper PMC5078040 (Oncotarget, 2016).
pIC50: −log10 of the molar value.

Assays:
PI3Kδ [1] = molecular target: T1, PI3Kδ (Homo sapiens, UniProt O00329); assay: Kinase kinetic assay (ATP competition, ADP-Glo); type: biochemical; conditions: varied ATP concentration
Experimental: Kinetic analyses of PI3KCD were performed using a luminometric kinase assay varying the concentration of ATP using the ADP-Glo reagents (Promega). […] After 60 min incubation at RT, varied concentrations of ATP, 0.1mM substrate PIP2:PS were added and incubated for 60 min at 37°C. The overall rate of reaction was determined as the slope of the decreasing phase of the reaction. Each data point was collected in duplicate and kinetic parameters were obtained using Prism 5.0 (GraphPad Software, San Diego, CA).

PI3Kδ [2] = molecular target: T1, PI3Kδ; assay: ADP-glo biochemical assay; conditions: purified enzyme, read-out: biochemical IC50 PI3K Delta
Experimental: The reaction in each tube was started immediately by adding ATP and kept going for an hour under 37°C. After the tube cooled for 5 minutes at room temperature, 5 μL solvent reactions were carried out in a 384-well plate. Then 5 μL of ADP-Glo™ reagent was added into each well to stop the reaction and consume the remaining ADP within 40 minutes. At the end, 10 μL of kinase detection reagent was added into the well and incubated for 30 minutes to produce a luminescence signal. Luminescence signal was measured with an automated plate reader (Perkin-Elmer Envision) and each measurement was performed in triplicate.

AKT1 = molecular target: T2, AKT1 (Homo sapiens, UniProt P31749); assay: KinomeScan; type: binding; conditions: 1uM
T2 construct: purchased DiscoveRx KINOMEscan

ALK(L1196M) = molecular target: T3, ALK(L1196M) (Homo sapiens, UniProt Q9UM73, L1196M); assay: KinomeScan; type: binding; conditions: 1uM
T3 construct: purchased DiscoveRx KINOMEscan

AMPK-alpha1 = molecular target: T4, AMPK-alpha1 (Homo sapiens, UniProt Q13131); assay: KinomeScan; type: binding; conditions: 1uM
T4 construct: purchased DiscoveRx KINOMEscan

BRSK1 = molecular target: T5, BRSK1 (Homo sapiens, UniProt Q8TDC3); assay: KinomeScan; type: binding; conditions: 1uM
T5 construct: purchased DiscoveRx KINOMEscan

CAMK4 = molecular target: T6, CAMK4 (Homo sapiens, UniProt Q16566); assay: KinomeScan; type: binding; conditions: 1uM
T6 construct: purchased DiscoveRx KINOMEscan

CDKL1 = molecular target: T7, CDKL1 (Homo sapiens, UniProt Q00532); assay: KinomeScan; type: binding; conditions: 1uM
T7 construct: purchased DiscoveRx KINOMEscan

CSNK1G1 = molecular target: T8, CSNK1G1 (Homo sapiens, UniProt Q9HCP0); assay: KinomeScan; type: binding; conditions: 1uM
T8 construct: purchased DiscoveRx KINOMEscan

EGFR(T790M) = molecular target: T9, EGFR(T790M) (Homo sapiens, UniProt P00533, T790M); assay: KinomeScan; type: binding; conditions: 1uM
T9 construct: purchased DiscoveRx KINOMEscan

EPHB6 = molecular target: T10, EPHB6 (Homo sapiens, UniProt O15197); assay: KinomeScan; type: binding; conditions: 1uM
T10 construct: purchased DiscoveRx KINOMEscan

ERBB3 = molecular target: T11, ERBB3 (Homo sapiens, UniProt P21860); assay: KinomeScan; type: binding; conditions: 1uM
T11 construct: purchased DiscoveRx KINOMEscan

HIPK3 = molecular target: T12, HIPK3 (Homo sapiens, UniProt Q9H422); assay: KinomeScan; type: binding; conditions: 1uM
T12 construct: purchased DiscoveRx KINOMEscan

[3] = molecular target: T13, JAK1(JH2domain-pseudokinase) (Homo sapiens, UniProt P23458); assay: KinomeScan; type: binding; conditions: 1uM
T13 construct: JAK1(JH2domain-pseudokinase); purchased DiscoveRx KINOMEscan

LTK = molecular target: T14, LTK (Homo sapiens, UniProt P29376); assay: KinomeScan; type: binding; conditions: 1uM
T14 construct: purchased DiscoveRx KINOMEscan

MEK1 = molecular target: T15, MEK1 (Homo sapiens, UniProt Q02750); assay: KinomeScan; type: binding; conditions: 1uM
T15 construct: purchased DiscoveRx KINOMEscan

MKNK2 = molecular target: T16, MKNK2 (Homo sapiens, UniProt Q9HBH9); assay: KinomeScan; type: binding; conditions: 1uM
T16 construct: purchased DiscoveRx KINOMEscan

NEK6 = molecular target: T17, NEK6 (Homo sapiens, UniProt Q9HC98); assay: KinomeScan; type: binding; conditions: 1uM
T17 construct: purchased DiscoveRx KINOMEscan

PAK7 = molecular target: T18, PAK7 (Homo sapiens, UniProt Q9P286); assay: KinomeScan; type: binding; conditions: 1uM
T18 construct: purchased DiscoveRx KINOMEscan

PIK3CA = molecular target: T19, PIK3CA (Homo sapiens, UniProt P42336); assay: KinomeScan; type: binding; conditions: 1uM
T19 construct: purchased DiscoveRx KINOMEscan

PIK3CA(E545K) = molecular target: T20, PIK3CA(E545K) (Homo sapiens, UniProt P42336, E545K); assay: KinomeScan; type: binding; conditions: 1uM
T20 construct: purchased DiscoveRx KINOMEscan

PIK3CA(H1047L) = molecular target: T21, PIK3CA(H1047L) (Homo sapiens, UniProt P42336, H1047L); assay: KinomeScan; type: binding; conditions: 1uM
T21 construct: purchased DiscoveRx KINOMEscan

PIK3CD = molecular target: T22, PIK3CD (Homo sapiens, UniProt O00329); assay: KinomeScan; type: binding; conditions: 1uM
T22 construct: purchased DiscoveRx KINOMEscan

PIP5K1A = molecular target: T23, PIP5K1A (Homo sapiens, UniProt Q99755); assay: KinomeScan; type: binding; conditions: 1uM
T23 construct: purchased DiscoveRx KINOMEscan

PKN2 = molecular target: T24, PKN2 (Homo sapiens, UniProt Q16513); assay: KinomeScan; type: binding; conditions: 1uM
T24 construct: purchased DiscoveRx KINOMEscan

RET(V804M) = molecular target: T25, RET(V804M) (Homo sapiens, UniProt P07949, V804M); assay: KinomeScan; type: binding; conditions: 1uM
T25 construct: purchased DiscoveRx KINOMEscan

RIOK2 = molecular target: T26, RIOK2 (Homo sapiens, UniProt Q9BVS4); assay: KinomeScan; type: binding; conditions: 1uM
T26 construct: purchased DiscoveRx KINOMEscan

RIPK1 = molecular target: T27, RIPK1 (Homo sapiens, UniProt Q13546); assay: KinomeScan; type: binding; conditions: 1uM
T27 construct: purchased DiscoveRx KINOMEscan

RIPK5 = molecular target: T28, RIPK5 (Homo sapiens, UniProt Q6XUX3); assay: KinomeScan; type: binding; conditions: 1uM
T28 construct: purchased DiscoveRx KINOMEscan

[4] = molecular target: T29, RSK1(Kin.Dom.2-C-terminal) (Homo sapiens, UniProt Q15418); assay: KinomeScan; type: binding; conditions: 1uM
T29 construct: RSK1(Kin.Dom.2-C-terminal); purchased DiscoveRx KINOMEscan

SgK110 = molecular target: T30, SgK110 (Homo sapiens, UniProt P0C264); assay: KinomeScan; type: binding; conditions: 1uM
T30 construct: purchased DiscoveRx KINOMEscan

SNARK = molecular target: T31, SNARK (Homo sapiens, UniProt Q9H093); assay: KinomeScan; type: binding; conditions: 1uM
T31 construct: purchased DiscoveRx KINOMEscan

SRC = molecular target: T32, SRC (Homo sapiens, UniProt P12931); assay: KinomeScan; type: binding; conditions: 1uM
T32 construct: purchased DiscoveRx KINOMEscan

SRPK2 = molecular target: T33, SRPK2 (Homo sapiens, UniProt P78362); assay: KinomeScan; type: binding; conditions: 1uM
T33 construct: purchased DiscoveRx KINOMEscan

TAOK2 = molecular target: T34, TAOK2 (Homo sapiens, UniProt Q9UL54); assay: KinomeScan; type: binding; conditions: 1uM
T34 construct: purchased DiscoveRx KINOMEscan

TBK1 = molecular target: T35, TBK1 (Homo sapiens, UniProt Q9UHD2); assay: KinomeScan; type: binding; conditions: 1uM
T35 construct: purchased DiscoveRx KINOMEscan

VRK2 = molecular target: T36, VRK2 (Homo sapiens, UniProt Q86Y07); assay: KinomeScan; type: binding; conditions: 1uM
T36 construct: purchased DiscoveRx KINOMEscan

LC3B II = assay: Autophagy (western-blot); type: cell-based, human; conditions: 12 hours
Description: Cells were then washed in PBS and lysed in cell lysis buffer and detected by western-blot using LC3B, GAPDH antibody (Cell signaling Technology).

T1 sequence (O00329 whole entry): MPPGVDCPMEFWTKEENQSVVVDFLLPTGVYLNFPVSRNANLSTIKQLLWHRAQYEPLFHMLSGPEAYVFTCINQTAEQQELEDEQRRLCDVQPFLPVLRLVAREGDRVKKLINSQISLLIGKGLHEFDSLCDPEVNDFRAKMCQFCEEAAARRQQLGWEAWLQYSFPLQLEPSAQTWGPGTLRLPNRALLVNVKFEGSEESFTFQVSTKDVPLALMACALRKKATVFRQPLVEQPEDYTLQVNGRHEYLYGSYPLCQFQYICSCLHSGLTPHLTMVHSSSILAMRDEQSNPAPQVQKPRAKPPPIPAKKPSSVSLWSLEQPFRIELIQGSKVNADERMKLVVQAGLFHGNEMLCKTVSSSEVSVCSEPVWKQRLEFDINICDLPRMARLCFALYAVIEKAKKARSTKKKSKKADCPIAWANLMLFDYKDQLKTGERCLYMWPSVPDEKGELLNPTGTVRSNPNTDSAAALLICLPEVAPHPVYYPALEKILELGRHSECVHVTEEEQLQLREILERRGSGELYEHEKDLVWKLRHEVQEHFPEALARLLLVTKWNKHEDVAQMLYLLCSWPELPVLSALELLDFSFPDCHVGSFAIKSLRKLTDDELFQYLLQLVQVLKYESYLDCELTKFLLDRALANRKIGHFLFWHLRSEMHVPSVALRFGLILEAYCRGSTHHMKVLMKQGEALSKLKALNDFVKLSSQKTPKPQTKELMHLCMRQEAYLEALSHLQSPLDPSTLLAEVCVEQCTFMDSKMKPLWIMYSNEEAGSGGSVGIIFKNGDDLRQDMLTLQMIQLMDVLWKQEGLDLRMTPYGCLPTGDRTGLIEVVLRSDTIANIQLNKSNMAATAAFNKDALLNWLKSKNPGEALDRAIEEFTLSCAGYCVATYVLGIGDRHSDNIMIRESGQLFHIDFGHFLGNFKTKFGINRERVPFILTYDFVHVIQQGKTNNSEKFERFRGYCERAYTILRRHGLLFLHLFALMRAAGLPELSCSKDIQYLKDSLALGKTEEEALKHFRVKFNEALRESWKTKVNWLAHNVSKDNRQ
T1 sequence (P27986 whole entry partner): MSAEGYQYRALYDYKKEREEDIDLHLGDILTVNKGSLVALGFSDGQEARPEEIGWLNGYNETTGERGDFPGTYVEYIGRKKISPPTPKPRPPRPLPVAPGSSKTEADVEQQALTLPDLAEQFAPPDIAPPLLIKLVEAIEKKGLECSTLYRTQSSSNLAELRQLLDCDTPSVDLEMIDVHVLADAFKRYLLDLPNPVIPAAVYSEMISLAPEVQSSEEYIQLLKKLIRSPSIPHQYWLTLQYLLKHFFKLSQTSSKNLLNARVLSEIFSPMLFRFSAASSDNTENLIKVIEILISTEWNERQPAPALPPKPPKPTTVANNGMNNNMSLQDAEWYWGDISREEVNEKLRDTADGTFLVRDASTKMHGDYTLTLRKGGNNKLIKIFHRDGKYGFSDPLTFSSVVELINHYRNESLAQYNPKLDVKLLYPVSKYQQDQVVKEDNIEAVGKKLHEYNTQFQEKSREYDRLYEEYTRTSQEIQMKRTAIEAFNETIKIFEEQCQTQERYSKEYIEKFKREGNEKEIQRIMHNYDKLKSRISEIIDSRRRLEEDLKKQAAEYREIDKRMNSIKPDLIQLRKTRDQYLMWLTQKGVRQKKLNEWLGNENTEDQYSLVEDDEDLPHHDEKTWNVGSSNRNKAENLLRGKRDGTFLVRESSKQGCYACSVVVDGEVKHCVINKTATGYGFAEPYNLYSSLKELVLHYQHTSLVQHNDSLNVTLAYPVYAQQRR
T4 sequence (Q13131 whole entry): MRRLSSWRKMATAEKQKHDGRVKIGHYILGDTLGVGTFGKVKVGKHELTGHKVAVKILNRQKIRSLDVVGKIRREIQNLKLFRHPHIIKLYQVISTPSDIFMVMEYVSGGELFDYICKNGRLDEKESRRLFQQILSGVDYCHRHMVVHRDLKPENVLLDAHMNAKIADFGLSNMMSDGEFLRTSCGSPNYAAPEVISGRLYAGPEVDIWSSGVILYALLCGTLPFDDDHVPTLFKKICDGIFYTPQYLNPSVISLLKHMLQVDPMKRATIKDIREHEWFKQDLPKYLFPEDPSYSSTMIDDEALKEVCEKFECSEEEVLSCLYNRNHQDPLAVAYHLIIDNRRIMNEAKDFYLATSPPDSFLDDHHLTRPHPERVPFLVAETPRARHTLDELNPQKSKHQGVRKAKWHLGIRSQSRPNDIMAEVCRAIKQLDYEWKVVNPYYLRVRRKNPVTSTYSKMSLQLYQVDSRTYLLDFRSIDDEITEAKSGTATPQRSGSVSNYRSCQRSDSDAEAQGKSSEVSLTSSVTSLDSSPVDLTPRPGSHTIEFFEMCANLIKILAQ
T29 sequence (Q15418 392-735 limits assumed): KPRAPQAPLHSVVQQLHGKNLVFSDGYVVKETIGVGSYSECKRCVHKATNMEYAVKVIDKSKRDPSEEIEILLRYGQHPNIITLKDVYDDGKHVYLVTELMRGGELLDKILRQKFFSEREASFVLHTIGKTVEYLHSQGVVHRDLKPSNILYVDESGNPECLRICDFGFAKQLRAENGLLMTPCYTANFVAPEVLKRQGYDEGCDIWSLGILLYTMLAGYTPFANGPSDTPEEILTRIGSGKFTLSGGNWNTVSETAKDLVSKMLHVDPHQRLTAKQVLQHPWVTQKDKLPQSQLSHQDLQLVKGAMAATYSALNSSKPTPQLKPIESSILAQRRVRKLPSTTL
T33 sequence (P78362 whole entry): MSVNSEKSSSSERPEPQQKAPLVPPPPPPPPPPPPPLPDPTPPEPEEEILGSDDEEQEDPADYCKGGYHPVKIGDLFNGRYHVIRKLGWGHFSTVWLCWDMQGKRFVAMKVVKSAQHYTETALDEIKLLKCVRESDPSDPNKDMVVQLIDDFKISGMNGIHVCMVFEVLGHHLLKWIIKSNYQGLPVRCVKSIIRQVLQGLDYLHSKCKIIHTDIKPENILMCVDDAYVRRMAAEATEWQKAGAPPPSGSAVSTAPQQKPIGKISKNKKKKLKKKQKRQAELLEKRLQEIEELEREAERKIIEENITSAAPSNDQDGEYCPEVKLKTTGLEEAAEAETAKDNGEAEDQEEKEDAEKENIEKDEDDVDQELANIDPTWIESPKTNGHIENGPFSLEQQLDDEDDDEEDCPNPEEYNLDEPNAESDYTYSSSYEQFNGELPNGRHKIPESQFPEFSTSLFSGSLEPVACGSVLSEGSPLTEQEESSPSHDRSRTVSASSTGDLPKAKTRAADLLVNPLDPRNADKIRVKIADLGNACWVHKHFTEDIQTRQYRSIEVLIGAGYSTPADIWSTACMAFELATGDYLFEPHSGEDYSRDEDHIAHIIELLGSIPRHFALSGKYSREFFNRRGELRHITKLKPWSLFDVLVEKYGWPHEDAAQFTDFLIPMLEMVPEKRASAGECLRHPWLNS
T28 sequence (Q6XUX3 whole entry): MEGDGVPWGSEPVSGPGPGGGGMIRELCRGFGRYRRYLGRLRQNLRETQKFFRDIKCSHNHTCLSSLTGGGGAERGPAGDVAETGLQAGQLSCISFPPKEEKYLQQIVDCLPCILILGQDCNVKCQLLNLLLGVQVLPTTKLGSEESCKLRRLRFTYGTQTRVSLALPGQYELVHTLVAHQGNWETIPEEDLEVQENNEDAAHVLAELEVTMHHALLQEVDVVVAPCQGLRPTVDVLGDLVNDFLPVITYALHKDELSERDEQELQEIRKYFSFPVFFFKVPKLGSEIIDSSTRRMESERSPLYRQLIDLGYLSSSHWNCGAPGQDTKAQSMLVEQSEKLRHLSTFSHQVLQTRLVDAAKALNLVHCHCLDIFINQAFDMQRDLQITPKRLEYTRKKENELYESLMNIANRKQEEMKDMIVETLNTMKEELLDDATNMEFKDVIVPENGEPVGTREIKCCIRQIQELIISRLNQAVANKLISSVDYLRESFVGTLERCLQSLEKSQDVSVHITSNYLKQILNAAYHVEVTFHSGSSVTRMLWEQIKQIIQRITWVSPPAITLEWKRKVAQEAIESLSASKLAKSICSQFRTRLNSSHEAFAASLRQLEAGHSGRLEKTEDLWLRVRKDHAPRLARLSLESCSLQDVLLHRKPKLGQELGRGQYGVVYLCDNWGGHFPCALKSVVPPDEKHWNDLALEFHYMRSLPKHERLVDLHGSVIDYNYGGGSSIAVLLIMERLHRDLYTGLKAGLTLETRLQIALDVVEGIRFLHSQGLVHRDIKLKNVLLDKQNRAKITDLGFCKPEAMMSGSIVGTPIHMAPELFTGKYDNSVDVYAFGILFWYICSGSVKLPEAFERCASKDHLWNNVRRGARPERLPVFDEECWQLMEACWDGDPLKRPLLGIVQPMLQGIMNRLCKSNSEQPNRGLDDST
T15 sequence (Q02750 whole entry): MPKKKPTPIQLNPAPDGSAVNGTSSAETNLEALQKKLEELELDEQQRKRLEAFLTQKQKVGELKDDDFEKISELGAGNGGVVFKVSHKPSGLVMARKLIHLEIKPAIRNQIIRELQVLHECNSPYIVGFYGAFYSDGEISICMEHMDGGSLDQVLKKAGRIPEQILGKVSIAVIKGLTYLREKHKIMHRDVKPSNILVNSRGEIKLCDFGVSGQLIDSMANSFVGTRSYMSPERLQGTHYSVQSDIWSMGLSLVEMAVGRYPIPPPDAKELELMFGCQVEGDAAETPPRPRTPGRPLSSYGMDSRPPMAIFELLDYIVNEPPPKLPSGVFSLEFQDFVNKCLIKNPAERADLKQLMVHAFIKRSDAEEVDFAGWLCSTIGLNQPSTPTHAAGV
T13 sequence (P23458 583-855 limits assumed): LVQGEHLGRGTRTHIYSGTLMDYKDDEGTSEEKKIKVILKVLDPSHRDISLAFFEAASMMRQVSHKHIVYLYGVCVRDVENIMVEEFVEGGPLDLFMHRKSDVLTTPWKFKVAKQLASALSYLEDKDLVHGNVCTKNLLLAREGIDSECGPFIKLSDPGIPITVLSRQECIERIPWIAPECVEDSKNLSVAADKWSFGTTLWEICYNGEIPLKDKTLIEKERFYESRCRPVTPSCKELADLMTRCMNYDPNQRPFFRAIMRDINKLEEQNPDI
T22 sequence (O00329 whole entry): as the sequence (O00329 whole entry) above

Cc1nc(NC(=O)[C@@H](N)C(C)C)sc1-c1cnc(Cl)c(NS(=O)(=O)c2ccccc2)c1 [PI3KD-IN-015]
binding kinetics / mode of inhibition (PI3Kδ [1]): ATP competitive inhibitor | pIC50 (PI3Kδ [2]): 8.30 | KinomeScan AKT1 (AKT1): 91 | KinomeScan ALK(L1196M) (ALK(L1196M)): 100 | KinomeScan AMPK-alpha1 (AMPK-alpha1): 100 | KinomeScan BRSK1 (BRSK1): 100 | KinomeScan CAMK4 (CAMK4): 89 | KinomeScan CDKL1 (CDKL1): 100 | KinomeScan CSNK1G1 (CSNK1G1): 100 | KinomeScan EGFR(T790M) (EGFR(T790M)): 70 | KinomeScan EPHB6 (EPHB6): 100 | KinomeScan ERBB3 (ERBB3): 100 | KinomeScan HIPK3 (HIPK3): 100 | KinomeScan JAK1(JH2domain-pseudokinase) [3]: 100 | KinomeScan LTK (LTK): 100 | KinomeScan MEK1 (MEK1): 100 | KinomeScan MKNK2 (MKNK2): 98 | KinomeScan NEK6 (NEK6): 100 | KinomeScan PAK7 (PAK7): 89 | KinomeScan PIK3CA (PIK3CA): 7.2 | KinomeScan PIK3CA(E545K) (PIK3CA(E545K)): 6.4 | KinomeScan PIK3CA(H1047L) (PIK3CA(H1047L)): 0 | KinomeScan PIK3CD (PIK3CD): 0 | KinomeScan PIP5K1A (PIP5K1A): 84 | KinomeScan PKN2 (PKN2): 100 | KinomeScan RET(V804M) (RET(V804M)): 100 | KinomeScan RIOK2 (RIOK2): 72 | KinomeScan RIPK1 (RIPK1): 100 | KinomeScan RIPK5 (RIPK5): 83 | KinomeScan RSK1(Kin.Dom.2-C-terminal) [4]: 96 | KinomeScan SgK110 (SgK110): 100 | KinomeScan SNARK (SNARK): 97 | KinomeScan SRC (SRC): 91 | KinomeScan SRPK2 (SRPK2): 100 | KinomeScan TAOK2 (TAOK2): 96 | KinomeScan TBK1 (TBK1): 100 | KinomeScan VRK2 (VRK2): 91 | autophagy induction (LC3B II) (LC3B II; HT cells and MEC-1 cells): significantly increased the production of LC3B II | autophagy induction (LC3B II; MOLM-13 cell): no apparent autophagy induction
